Test results as given in patent US11191773B2, “Methods of treatment for bacterial infections” (President and Fellows of Harvard College, priority 2017, dated 2021).
In brackets after ≈: the same amount, converted by molar mass. Entries after “also recorded” stand apart in the source; their conditions may differ.

Experiments:
wild type = experiment: Minimum inhibitory concentration assay; type: cell-based, E. coli; details: Escherichia coli, 15 h, read-out: Minimum inhibitory concentration
Description: (§1) We wondered whether it would be possible to separate novobiocin's ability to suppress the IptFG(ch) defects in vivo from its activity against DNA gyrase, its presumed primary target. […] Minimum inhibitory concentrations were measured after a 15-hr incubation period at 37° C.
(§2) Overnight cultures were prepared by transferring 5 mL of sterile LB Miller media to culture tubes and inoculating with the corresponding organism. The tubes were allowed to shake at 220 rpm, 37° C. overnight. 15 μL of overnight culture was diluted in 15 mL of LB Miller in a Falcon tube and was vortexed to mix. In a 96-well plate, 100 μL of diluted culture was added to each well. To column #1, an additional 100 μL of diluted culture and test compound was added (93.7 μL culture+6.35 μL 10 mg/mL novobiocin) or (94.2 μL culture+5.87 μL 10 mg/mL 1-adamantyl-novobiocin) such that the highest concentration tested was 500 μM. Transferred 100 μL from column #1 into column #2, etc, and mixed each time thoroughly. Repeated serial dilution until column #11. Incubated the plate at 37° C. overnight (˜16 h) and read the turbidity (OD600) using a Spectramax 384 plus plate reader (Molecular Devices).

lptB1 = experiment: Minimum inhibitory concentration assay; type: cell-based, E. coli; details: Escherichia coli, 15 h, read-out: Minimum inhibitory concentration
Description: as §1, §2

ΔtolC = experiment: Minimum inhibitory concentration assay; type: cell-based, E. coli; details: Escherichia coli, 15 h, read-out: Minimum inhibitory concentration
Description: as §1, §2

[1] = molecular target: T1, wild-type LptB2FGC complexes (Escherichia coli, UniProt P0A9V1); experiment: LPS-release assay, right-side-out vesicles to LptA*; type: biochemical, E. coli
T1 construct: made in house; host or cells: right-side-out membrane vesicles from E. coli BL-21(λDE3) overexpressing the complex
T1 sequence (P0AF98 whole entry): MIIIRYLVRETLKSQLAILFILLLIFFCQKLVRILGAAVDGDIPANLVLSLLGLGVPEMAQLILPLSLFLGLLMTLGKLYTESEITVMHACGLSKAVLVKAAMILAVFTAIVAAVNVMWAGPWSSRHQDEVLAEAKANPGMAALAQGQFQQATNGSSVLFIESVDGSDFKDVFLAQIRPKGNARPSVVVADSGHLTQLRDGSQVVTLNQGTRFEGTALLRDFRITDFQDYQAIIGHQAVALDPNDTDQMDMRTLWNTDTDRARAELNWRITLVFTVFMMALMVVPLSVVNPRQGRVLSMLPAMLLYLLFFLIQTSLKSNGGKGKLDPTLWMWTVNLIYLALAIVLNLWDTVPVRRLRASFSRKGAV
T1 sequence (P0ADV9 whole entry, further chain): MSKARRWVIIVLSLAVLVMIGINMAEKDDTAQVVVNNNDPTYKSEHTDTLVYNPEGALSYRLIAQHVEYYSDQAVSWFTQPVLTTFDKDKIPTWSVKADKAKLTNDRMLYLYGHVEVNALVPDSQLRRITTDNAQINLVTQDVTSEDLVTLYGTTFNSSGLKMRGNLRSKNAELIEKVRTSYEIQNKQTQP
T1 sequence (P0ADC6 whole entry, further chain): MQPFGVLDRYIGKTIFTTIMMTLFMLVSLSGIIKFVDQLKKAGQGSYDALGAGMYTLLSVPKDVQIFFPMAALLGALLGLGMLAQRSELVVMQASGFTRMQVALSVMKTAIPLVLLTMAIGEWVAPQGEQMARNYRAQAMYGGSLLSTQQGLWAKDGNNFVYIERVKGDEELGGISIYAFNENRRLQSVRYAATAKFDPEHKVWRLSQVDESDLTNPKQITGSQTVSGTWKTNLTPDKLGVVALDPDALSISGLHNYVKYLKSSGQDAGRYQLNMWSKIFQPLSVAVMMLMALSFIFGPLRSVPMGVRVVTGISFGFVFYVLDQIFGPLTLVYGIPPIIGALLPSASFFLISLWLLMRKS
T1 sequence (P0A9V1 2-241): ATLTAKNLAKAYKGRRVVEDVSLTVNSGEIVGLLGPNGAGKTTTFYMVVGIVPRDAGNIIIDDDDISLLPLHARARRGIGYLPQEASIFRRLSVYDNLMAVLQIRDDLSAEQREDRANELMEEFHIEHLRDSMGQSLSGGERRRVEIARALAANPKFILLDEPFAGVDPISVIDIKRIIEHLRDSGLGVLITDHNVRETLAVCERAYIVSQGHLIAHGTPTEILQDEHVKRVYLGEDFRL
Description: FIG. 9A is a schematic drawing showing the assay to monitor LPS release from right-side-out vesicles to LptA* (LptA(I36pBPA)). Vesicles containing overexpressed wild-type or mutant LptB2FGC complexes were incubated with LptA* and ATP at 30° C. to initiate LPS extraction and transport from the vesicles to LptA*. Samples were taken at different time points and UV-irradiated to crosslink LPS to LptA*, and accumulation of LPS-LptA* adducts was detected using LPS immunoblots.
FIG. 9D is a picture of an immunoblot showing that novobiocin and derivatives with impaired gyrase activities stimulate LPS transport in E. coli in vitro. […] Samples were UV irradiated at 365 nm for 5 minutes and then quenched with 2X SDS/5% β-mercaptoethanol. Samples were immunoblotted.
The assay detects via immunoblot LPS that becomes crosslinked to LptA* in the presence of UV light. […] By comparison, vesicles containing LptB2LptFG(ch)C complexes released less LPS over time (FIG. 9B, lanes 5-8). These experiments provide direct evidence that the amino acid changes in LptFG(ch), which were known to affect complex formation with LptB, impair LPS release. […] These compounds also increase LPS release from vesicles containing wild-type LptB2FGC complexes or LptB(R91 S)2FGC complexes (FIG. 17).
Samples were UV irradiated at 365 nm for 5 minutes and then quenched with 2X SDS/5% β-mercaptoethanol. Samples were immunoblotted.
The in vitro LPS-transport experiments in FIGS. 9B, 9C, and 17 were set-up as described in (Okuda et al. Science 2012, 338, 1214-1217) with some modifications. RSO-vesicles (50 μg total protein) were diluted into 100 μL reaction buffer (10% v/v glycerol, 20 mM Tris (pH 8.0), 150 mM NaCl, 5 mM sodium-ATP, 5 mM MgCl2), and incubated on ice with novobiocin, 1-adamantyl-novobiocin, or no compound for 15 minutes (50× compound stocks in water were used for each concentration). […]
Immunoblotting was used to assess LptA*-LPS levels in each sample. […] LptA levels were assessed similarly, using rabbit anti-LptA antiserum followed by donkey anti-rabbit horseradish peroxidase conjugate (GE Amersham). […]

[2] = test system: polymyxin-resistant K. pneumoniae (clinical isolate from Brigham and Women's Hospital); type: cell-based; details: 37° C. for 24 h
Description: The effect of novobiocin/polymyxin combination was further assessed in polymyxin-resistant strains using checkerboard microdilution assays. In these assays, polymyxin-resistant strains (E. coli (clinical isolate from Brigham and Women's Hospital); A. baumannii (ATCC: 19606) mutant that is novobiocin and polymyxin-resistant; and K. pneumoniae (clinical isolate from Brigham and Women's Hospital)) were grown at 37° C. for 24 h.

Gram-negative pathogens = experiment: Checkerboard microdilution assays between polymyxin B and novobiocin (FIG. 1A-1F); type: cell-based; details: six strains of FIG. 1A-1F, 37° C. for 24 h
Description: Checkerboard data are representative of at least three biological replicates.

Klebsiella pneumoniae = experiment: Minimal inhibitory concentrations, checkerboard microdilution; type: cell-based; details: Klebsiella pneumoniae; grown at 37° C. for 24 h; read-out: MIC
Description: (§3) Checkerboard microdilution assays between polymyxin B and novobiocin were performed in wild-type strains (unless otherwise noted) grown at 37° C. for 24 h. Checkerboard data (FIG. 1A-1F) are representative of at least three biological replicates. The following strains were tested: A) Wild-type Escherichia coli, ATCC 25922; B) Wild-type Enterobacter cloacae; ATCC 13047) Wild-type Klebsiella pneumoniae, ATCC 700721; D) Wild-type Pseudomonas aeruginosa, ATCC 15692 (PAO1); E) Wild-type Acinetobacter baumannii, ATCC 19606; F) novobiocin-resistant Acinetobacter baumannii, ATCC 19606 gyrB(R150C).

Pseudomonas aeruginosa = experiment: as above; type: cell-based; details: Pseudomonas aeruginosa; grown at 37° C. for 24 h; read-out: MIC
Description: as §3

Escherichia coli = experiment: as above; type: cell-based; details: Escherichia coli; grown at 37° C. for 24 h; read-out: MIC
Description: as §3

[3] = test system: Acinetobacter baumannii Novo^R; experiment: as above; type: cell-based; details: Acinetobacter baumannii, 24 h
Description: as §3

[4] = test system: novobiocin-resistant A. baumannii 19606 gyrB(R150C) point mutant (Novo^R); type: cell-based

## CO[C@@H]1[C@@H](OC(N)=O)[C@@H](O)[C@H](Oc2ccc3c(O)c(NC(=O)c4ccc(O)c(CC=C(C)C)c4)c(=O)oc3c2C)OC1(C)C [Novobiocin, novobiocin]
Wild type
  MIC: 62.5 to 125 µM (≈ 38.3 to 76.6 µg/mL)
lptB1
  MIC: < 0.5 µM
ΔtolC
  MIC: 2 µM (≈ 1.23 µg/mL)
[1]; overexpressed LptB2FGC vesicles, 30° C. for 1 hour (FIG. 9D, 9E)
  LPS transport in vitro: stimulate LPS transport in vitro
[1]; wild-type LptB2FGC or LptB(R91 S)2FGC vesicles (FIG. 17)
  LPS release from vesicles to LptA*: stimulates LPS release
[2]
  synergy with polymyxin B: synergizes with polymyxin B
Gram-negative pathogens
  synergy with polymyxin B: synergizes with polymyxin B to kill Gram-negative pathogens in vitro
Klebsiella pneumoniae
  MIC: 270 µg/mL
Pseudomonas aeruginosa
  MIC: > 450 µg/mL
Escherichia coli
  MIC: 20 µg/mL
[3]
  MIC: 190 µg/mL
[4]; Novo^R A. baumannii
  synergy with PMBN: resistant to the same combination; also recorded: same synergy but at higher [novobiocin]
[4]; relative to wild type
  resistance of gyrB(R150C) point mutant towards novobiocin: 300 fold
